According to US7632819B1, “Methods and compositions for inhibiting PKC delta cleavage for treatment and prevention of neurodegeneration and apoptosis” (Iowa State University Research Foundation, Inc., priority 2004, dated 2009):
Where a SMILES comes first, the peptide text is derived from it. The star is where a group is joined. Cbz = O=C(OCc1ccccc1)*; CH2F = FC*

Tests used:
[1] = system: N27 mesencephalic neuronal cells; assay: MTT cytotoxicity assay, MPP+- and 6-OHDA-induced cytotoxicity; conditions: N27 cells, 100 μM 6-OHDA 24 hr, inhibitor 50 μM
From the text: (§1) Chemicals. Protease cocktail, ATP, protein-A-sepharose, protein-G-sepharose and anti-â-actin antibody were obtained from Sigma-Aldrich (St. Louis, Mo.); mouse tyrosine hydroxylase antibody was purchased from Chemicon (Temecula, Calif.); the rabbit polyclonal antibody for tyrosine hydroxylase was obtained from Calbiochem Bioscience, Inc. (King of Prussia, Pa.); rabbit PKCδ antibody was purchased from Santa Cruz Biotechnology, Inc. (Santa Cruz, Calif.); anti-rabbit and anti-mouse secondary antibodies and the ECL chemiluminescence kit were purchased from Amersham Pharmacia Biotech. (Piscataway, N.J.). Alexa 488 conjugated antirabbit/mouse, Cy3 conjugated anti-rabbit/mouse antibody and Hoechst 33342 were purchased from Molecular Probes, Inc. (Eugene, Oreg.). [ã-32P]ATP was purchased from Perkin Elmer Life Science Products (Boston, Mass.). The Bradford protein assay kit was purchased from Bio-Rad Laboratories (Hercules, Calif.). RPMI, fetal bovine serum, -glutamine, penicillin, and streptomycin were purchased from Invitrogen (Gaithersburg, Md.). Quantity One 4.2.0 software was purchased from Bio-Rad. Design and synthesis of z-DIPD-fmk (SEQ ID NO:5). To develop a cell permeable peptide inhibitor to specifically block PKCδ cleavage, we designed the tetrapeptide Asp-Ile-Pro-Asp (DIPD) (SEQ ID NO:5) corresponding to position 324-327 in rat PKCδ cDNA representing the caspase-3 cleavage site. Since this peptide is directed against the caspase-3 cleavage site of PKCδ, it should prevent the proteolytic cleavage and activation of PKCδ mediated by caspase-3. The custom synthesis of the tetrapeptide Z-Asp(OMe)-Ile-Pro-Asp(OMe)-FMK (SEQ ID NO:5) was performed at MP Biomedicals (Irvine, Calif.), a quality company that specializes in developing cell permeable peptide inhibitors directed against apoptosis cell signaling molecules. […]

[2] = system: PKCδ; assay: Western blot of PKCδ proteolytic cleavage in N27 cells; format: cell-based, rat
From the text: as §1

[3] = system: primary mesencephalic dopaminergic neuronal cells; assay: TH immunostaining, TH+ cell count and neuronal process length in primary mesencephalic cultures; format: cell-based, mouse
From the text: Chemicals. Protease cocktail, ATP, protein-A-sepharose, protein-G-sepharose and anti-â-actin antibody were obtained from Sigma-Aldrich (St. Louis, Mo.); mouse tyrosine hydroxylase antibody was purchased from Chemicon (Temecula, Calif.); the rabbit polyclonal antibody for tyrosine hydroxylase was obtained from Calbiochem Bioscience, Inc. (King of Prussia, Pa.); rabbit PKCδ antibody was purchased from Santa Cruz Biotechnology, Inc. (Santa Cruz, Calif.); anti-rabbit and anti-mouse secondary antibodies and the ECL chemiluminescence kit were purchased from Amersham Pharmacia Biotech. (Piscataway, N.J.). Alexa 488 conjugated antirabbit/mouse, Cy3 conjugated anti-rabbit/mouse antibody and Hoechst 33342 were purchased from Molecular Probes, Inc. (Eugene, Oreg.). [ã-32P]ATP was purchased from Perkin Elmer Life Science Products (Boston, Mass.). The Bradford protein assay kit was purchased from Bio-Rad Laboratories (Hercules, Calif.). RPMI, fetal bovine serum, -glutamine, penicillin, and streptomycin were purchased from Invitrogen (Gaithersburg, Md.). Quantity One 4.2.0 software was purchased from Bio-Rad. Design and synthesis of z-DIPD-fmk (SEQ ID NO:5). To develop a cell permeable peptide inhibitor to specifically block PKCδ cleavage, we designed the tetrapeptide Asp-Ile-Pro-Asp (DIPD) (SEQ ID NO:5) corresponding to position 324-327 in rat PKCδ cDNA representing the caspase-3 cleavage site. Since this peptide is directed against the caspase-3 cleavage site of PKCδ, it should prevent the proteolytic cleavage and activation of PKCδ mediated by caspase-3. The custom synthesis of the tetrapeptide Z-Asp(OMe)-Ile-Pro-Asp(OMe)-FMK (SEQ ID NO:5) was performed at MP Biomedicals (Irvine, Calif.), a quality company that specializes in developing cell permeable peptide inhibitors directed against apoptosis cell signaling molecules. Briefly, the synthesis was performed with the reaction of Boc-D(OMe)-OH with MBFM (Magnesium benzyl fluoromalonate) to produce Beta-Keto fluoroester, followed by hydrogenation with Pd/c to produce Boc-D(OMe)FK, which was converted into Tfa salt using trifluoroacetic acid. Coupling of Tfa salt with Z-D(OMe)—I—P—OH in DMF with HOBT, HBTU DIEA and workup produced a crude product which was purified by column chromatography over silica gel. Elution with EtOAC:MeOH 95:5 gave pure fractions which were mixed and dried. Crystallization with EtOAC/Hexane, filtration and drying produced the pure product. Animals. Time-pregnant C57/bL mice were housed under standard conditions: constant temperature (22±1° C.), humidity (relative, 30%) and a 12-h light/dark cycle with free access to food and water. The animals and protocol procedures were approved and supervised by the Committee on Animal Care (COAC) at Iowa State University. Cell culture. Rat mesencephalic dopaminergic neuronal (N27) cells were cultured as described earlier (Anantharam et al., 2002). Briefly, cells were grown in RPMI 1640 medium containing 10% fetal bovine serum, 2 mM L-glutamine, 50 units of penicillin, and 50 μg/ml streptomycin. Cells were maintained in a humidified atmosphere of 5% CO2 at 37° C. Primary mesencephalic neuronal cultures were prepared from the ventral mesencephalon of gestational 18-day-old mice embryos as described previously (Yang et al., 2004). Mesencephalic tissues were dissected and maintained in ice-cold Ca2+-free HBSS and then dissociated in HBSS solution containing trypsin-EDTA (0.25%) for 20 min at 37° C. The dissociated cells were then plated at equal density (0.5×10^6 cells) in 30-mm-diameter tissue culture wells pre-coated with poly-lysine (1 mg/ml). Cultures were maintained in a chemically defined, serum-free medium consisting of neurobasal medium fortified with B-27 supplements, L-glutamine (500 μM), penicillin (100 IU/ml), and streptomycin (100 μg/ml) (Life Technologies). The cells were maintained in a humidified CO2 incubator (5% CO2, 37° C.) for 24 hr and then treated with cytosine arabinoside (10 μM) for 24 hr to inhibit glial cell proliferation. […]

[4] = 10 μM MPP+ 24 hr, inhibitor 10 and 50 μM

CC[C@H](C)[C@H](NC(=O)[C@H](CC(=O)OC)NC(=O)OCc1ccccc1)C(=O)N1CCC[C@H]1C(=O)N[C@@H](CC(=O)OC)C(=O)CF [z-DIPD-fmk, Z-Asp(OMe)-Ile-Pro-Asp(OMe)-FMK] (Cbz-D(OMe)IPD(OMe)-CH2F)
protection against 6-OHDA-induced cell death (MTT) [1]: significantly protected | effect on 6-OHDA-induced proteolytic cleavage of PKCδ ([2]; N27 cells, 100 μM 6-OHDA 24 hr, inhibitor 50 μM): significantly attenuated | effect on MPP+-induced proteolytic cleavage of PKCδ ([2]; N27 cells, 300 μM MPP+ 36 hr, inhibitor 50 μM): almost completely attenuated | effect on PKCδ cleavage and proteolytic activation in PD models ([2]; concentration not given): effectively blocked | TH+ cell counts, protection against MPP+ neurotoxicity [3, 4]: nearly complete protection | average lengths of TH+ neuronal processes versus MPP+ only [3, 4]: significantly longer | TH+ cell counts, protection against 6-OHDA neurotoxicity ([3]; 30 μM 6-OHDA 24 hr, inhibitor 10 and 50 μM): nearly complete protection | rescue of tyrosine hydroxylase positive neurons from MPP+- and 6-OHDA-induced toxicity ([3]; mouse primary mesencephalic cultures): completely rescued | effect on 6-OHDA-induced degeneration of TH+ neurons and their processes ([3]; primary nigral cultures, 30 μM 6-OHDA 24 hr, inhibitor 10 and 50 μM): significantly blocked | effect on MPP+-induced degeneration of TH+ neurons and their processes ([3]; primary nigral dopaminergic neurons, 10 μM MPP+ 24 hr, inhibitor 10 and 50 μM): significantly blocked
